In brackets after ≈: the same amount, converted by molar mass. Where only a bound is given, the exact number is not on record here.

In general, MIC refers to the lowest concentration found to suppress growth. Higher therefore signals a less susceptible organism.

What all share (assay type): functional
For assay [1], the system named is Staphylococcus aureus. Put plainly: In vitro minimum inhibitory concentration against Staphylococcus aureus COL.
Assay [2] deals with Staphylococcus aureus. Put plainly: In vitro minimum inhibitory concentration against Staphylococcus aureus SN 7.
For assay [3], the system named is Staphylococcus aureus. Put plainly: In vitro minimum inhibitory concentration against Staphylococcus aureus SN 43.
Assay [4] deals with Staphylococcus aureus. Put plainly: In vitro minimum inhibitory concentration against Staphylococcus aureus CDC1.

As for `C[C@@H](O)[C@H]1C(=O)N2C(C(=O)O)=C(COC(=O)c3ccc4ccc5ccccc5c4c3)S[C@H]12`, the MIC was 6.25 µg/mL (≈ 13.9 µM) in assay [1], < 0.011 µg/mL in assay [2], 6.25 µg/mL (≈ 13.9 µM) in assay [3] and < 0.011 µg/mL in assay [4].

Take `C[C@@H](O)[C@H]1C(=O)N2C(C(=O)O)=C(COc3ccccc3)S[C@H]12`: the MIC in assay [1] was 50 µg/mL (≈ 156 µM); in assay [2], 50 µg/mL (≈ 156 µM); in assay [3], 100 µg/mL (≈ 311 µM); in assay [4], 0.39 µg/mL (≈ 1.21 µM).

With `C[C@@H](O)[C@H]1C(=O)N2C(C(=O)O)=C(COC(=O)c3ccc4ccccc4c3)S[C@H]12`, the MIC in assay [1] was 12.5 µg/mL (≈ 31.3 µM); in assay [2], 0.39 µg/mL (≈ 0.976 µM); in assay [3], 6.25 µg/mL (≈ 15.6 µM); in assay [4] it was 0.09 µg/mL (≈ 0.225 µM).

For `C[C@@H](O)[C@H]1C(=O)N2C(C(=O)O)=C(COc3cncc4ccccc34)S[C@H]12`, the MIC was 6.25 µg/mL (≈ 16.8 µM) in assay [1], 3.12 µg/mL (≈ 8.38 µM) in assay [2], 12.5 µg/mL (≈ 33.6 µM) in assay [3] and 0.19 µg/mL (≈ 0.51 µM) in assay [4].

For the molecule `C[C@@H](O)[C@H]1C(=O)N2C(C(=O)O)=C(COC(=O)c3ccc4c(ccc5ccccc54)c3)S[C@H]12`, the minimum inhibitory concentration (MIC) in assay [1] is 3.12 µg/mL (≈ 6.94 µM); in assay [2], 0.09 µg/mL (≈ 0.2 µM); in assay [3] it was 6.25 µg/mL (≈ 13.9 µM); in assay [4], 0.022 µg/mL (≈ 0.0489 µM).

Turning to `C[C@@H](O)[C@H]1C(=O)N2C(C(=O)O)=C(COC(=O)c3cccnc3)S[C@H]12`, the minimal inhibitory concentration (MIC) in assay [1] stood at 50 µg/mL (≈ 143 µM); in assay [2], 0.19 µg/mL (≈ 0.542 µM); in assay [3], 100 µg/mL (≈ 285 µM); in assay [4], 0.09 µg/mL (≈ 0.257 µM).

Turning to `C[C@@H](O)[C@H]1C(=O)N2C(C(=O)O)=C(COC(=O)c3ccccc3)S[C@H]12`, the minimal inhibitory concentration (MIC) was determined as 25 µg/mL (≈ 71.6 µM) in assay [1], 0.39 µg/mL (≈ 1.12 µM) in assay [2], 50 µg/mL (≈ 143 µM) in assay [3] and 0.09 µg/mL (≈ 0.258 µM) in assay [4].

On to `C[C@@H](O)[C@H]1C(=O)N2C(C(=O)O)=C(COC(=O)c3cn(C4CC4)c4cc(N5CCNCC5)c(F)cc4c3=O)S[C@H]12`, for which the minimum inhibitory concentration (MIC) in assay [1] amounted to 6.25 µg/mL (≈ 11.2 µM); in assay [2], 1.56 µg/mL (≈ 2.79 µM); in assay [3], 50 µg/mL (≈ 89.5 µM); in assay [4], 0.39 µg/mL (≈ 0.698 µM).

With `C[C@@H](O)[C@H]1C(=O)N2C(C(=O)O)=C(COc3cnccn3)S[C@H]12`, the minimum inhibitory concentration (MIC) in assay [1] is 100 µg/mL (≈ 309 µM); in assay [2], 0.39 µg/mL (≈ 1.21 µM); in assay [3], > 100 µg/mL; in assay [4], 0.19 µg/mL (≈ 0.588 µM).

Take `C[C@@H](O)[C@H]1C(=O)N2C(C(=O)O)=C(COc3cncc(Cl)c3)S[C@H]12`: the MIC in assay [1] was determined as 25 µg/mL (≈ 70.1 µM); in assay [2] it was 0.78 µg/mL (≈ 2.19 µM); in assay [3], 50 µg/mL (≈ 140 µM); in assay [4], 0.09 µg/mL (≈ 0.252 µM).

Consider `C[C@@H](O)[C@H]1C(=O)N2C(C(=O)O)=C(COc3c(I)cc(Cl)c4cccnc34)S[C@H]12`, for which the MIC in assay [1] turned out to be 6.25 µg/mL (≈ 11.7 µM); in assay [2] it was 0.78 µg/mL (≈ 1.46 µM); in assay [3], 25 µg/mL (≈ 46.9 µM); in assay [4], 0.09 µg/mL (≈ 0.169 µM).

Regarding `C[C@@H](O)[C@H]1C(=O)N2C(C(=O)O)=C(COC(=O)c3cnccn3)S[C@H]12`, the MIC in assay [1] was 100 µg/mL (≈ 285 µM); in assay [2], 0.39 µg/mL (≈ 1.11 µM); in assay [3], > 100 µg/mL; in assay [4], 0.19 µg/mL (≈ 0.541 µM).

On to `C[C@@H](O)[C@H]1C(=O)N2C(C(=O)O)=C(COc3cccnc3)S[C@H]12`, for which the MIC in assay [1] was found to be 100 µg/mL (≈ 310 µM); in assay [2] it was 0.78 µg/mL (≈ 2.42 µM); in assay [3], 100 µg/mL (≈ 310 µM); in assay [4] it was 0.19 µg/mL (≈ 0.589 µM).

Consider `C[C@@H](O)[C@H]1C(=O)N2C(C(=O)O)=C(COC(=O)c3cnc4ccccc4c3)S[C@H]12`, for which the MIC in assay [1] was found to be 6.25 µg/mL (≈ 15.6 µM); in assay [2] it was 0.19 µg/mL (≈ 0.475 µM); in assay [3], 12.5 µg/mL (≈ 31.2 µM); in assay [4], 0.09 µg/mL (≈ 0.225 µM).

For the molecule `CC(O)[C@H]1C(=O)N2C(C(=O)O)=C(SCCNC=N)C[C@H]12.O` (single isomer, unassigned) [IMIPENEM], the MIC in assay [1] is 25 µg/mL; in assay [2], 0.19 µg/mL; in assay [3], 25 µg/mL; in assay [4] it was 0.09 µg/mL.

As for `O=C(O)c1cn(C2CC2)c2cc(N3CCNCC3)c(F)cc2c1=O` [CIPROFLOXACIN], the MIC is 0.78 µg/mL (≈ 2.35 µM) in assay [2] and 0.39 µg/mL (≈ 1.18 µM) in assay [4].

Turning to `C[C@@H](O)[C@H]1C(=O)N2C(C(=O)O)=C(S[C@@H]3CN[C@H](C(=O)N(C)C)C3)[C@H](C)[C@H]12` [MEROPENEM], the MIC in assay [1] is 100 µg/mL (≈ 261 µM); in assay [2], 1.56 µg/mL (≈ 4.07 µM); in assay [3], 25 µg/mL (≈ 65.2 µM); in assay [4] it was 0.19 µg/mL (≈ 0.495 µM).

With `COc1cccc(OC)c1C(=O)N[C@@H]1C(=O)N2[C@@H]1SC(C)(C)[C@@H]2C(=O)O` [METHICILLIN], the MIC in assay [1] is > 100 µg/mL; in assay [2] it was 6.25 µg/mL (≈ 16.4 µM); in assay [3], > 100 µg/mL; in assay [4], 3.12 µg/mL (≈ 8.2 µM).

Take `C[C@@H](O)[C@H]1C(=O)N2C(C(=O)O)=C(COC(N)=O)S[C@H]12` [RITIPENEM]: the MIC was found to be 100 µg/mL (≈ 347 µM) in assay [1], 0.39 µg/mL (≈ 1.35 µM) in assay [2], 100 µg/mL (≈ 347 µM) in assay [3] and 0.19 µg/mL (≈ 0.659 µM) in assay [4].

The values above are taken from ChEMBL document CHEMBL1151495, “Activity of new penems against defined MRSA strains” (1993).
